Reference: patent US20240294541A1, “COMPOUNDS CONSTITUTING C20-MODIFIED SALINOMYCIN DERIVATIVES, A METHOD FOR OBTAINING THE SAME, A COMPOSITION CONTAINING THE SAME AND A USE OF SAID COMPOUNDS” (FILECLO SPOLKA Z OGRANICZONA ODPOWIEDZIALNOSCIA, priority 2021, published 2024)

Experiments:
Format in all cases: cell-based
[1] = system: MV-4-11 (human biphenotypic leukaemia); assay: In vitro cytotoxicity, MTT assay, MV-4-11; details: for IC50: Homo sapiens, MV4-11, read-out: IC50 (nM) MV4-11
[2] = system: BALB/3T3 (normal mouse fibroblasts); assay: In vitro cytotoxicity, SRB assay, normal BALB/3T3 fibroblasts; details: Table 5; BALB/3T3 normal mouse fibroblasts; read-out: IC50 (nM) BALB3T3 normal cells
[3] = system: A2780Cis (cisplatin-resistant human ovarian cancer); assay: In vitro cytotoxicity, SRB assay, A2780Cis; details: for IC50: Homo sapiens, A2780cis, read-out: IC50 (nM) A2780Cis
[4] = system: PLC/PRF/5 (human liver cancer); assay: cells; details: Table 4; PLC/PRF/5 human liver cancer cells; read-out: IC50 (nM) PLC/PRF/5
Hs294T (human melanoma) = assay: cells; details: Hs 294T; Table 4; Hs294T human melanoma cells; read-out: IC50 (nM) Hs294T
[5] = system: MIA PaCa-2 (human pancreatic cancer); assay: cells; details: Table 4; MIA PaCa-2 human pancreatic cancer cells; read-out: IC50 (nM) MIA PaCa-2

Row | Compound | SI MV4-11 [1] | IC50 [1] | IC50 [2] | SI A2780Cis [3] | IC50 [3] | IC50 [4] | IC50 (Hs294T (human melanoma)) | IC50 [5]
1 | CC[C@@H](C(=O)[C@@H](C)[C@@H](O)[C@H](C)[C@@H]1O[C@@H]([C@@H](CC)C(=O)O)CC[C@@H]1C)[C@H]1O[C@]2(C=C[C@@H](NC(=O)OCCCCl)[C@]3(CC[C@@](C)([C@H]4CC[C@](O)(CC)[C@H](C)O4)O3)O2)[C@H](C)C[C@@H]1C [FLC-00530-1•Na] | 9.7 | 6.42 nM | 62.5 nM | 24.0 | 2.6 nM | – | – | –
2 | CC[C@@H](C(=O)[C@@H](C)[C@@H](O)[C@H](C)[C@@H]1O[C@@H]([C@@H](CC)C(=O)O)CC[C@@H]1C)[C@H]1O[C@]2(C=C[C@@H](NC(=O)OCCc3scnc3C)[C@]3(CC[C@@](C)([C@H]4CC[C@](O)(CC)[C@H](C)O4)O3)O2)[C@H](C)C[C@@H]1C [FLC-00547-1•Na] | 35.2 | 2.21 nM | 77.6 nM | ≈56.2 | < 1.38 nM | – | – | –
3 | CC[C@@H](C(=O)[C@@H](C)[C@@H](O)[C@H](C)[C@@H]1O[C@@H]([C@@H](CC)C(=O)O)CC[C@@H]1C)[C@H]1O[C@]2(C=C[C@@H](NC(=O)C(=O)NCCN)[C@]3(CC[C@@](C)([C@H]4CC[C@](O)(CC)[C@H](C)O4)O3)O2)[C@H](C)C[C@@H]1C [FLC-00456-1•Na] | – | 3430 nM | – | – | 2850 nM | 7290 nM | 8690 nM | –
4 | CC[C@@H](C(=O)[C@@H](C)[C@@H](O)[C@H](C)[C@@H]1O[C@@H]([C@@H](CC)C(=O)O)CC[C@@H]1C)[C@H]1O[C@]2(C=C[C@@H](NC(=O)N3CCN(CC)C(=O)C3=O)[C@]3(CC[C@@](C)([C@H]4CC[C@](O)(CC)[C@H](C)O4)O3)O2)[C@H](C)C[C@@H]1C [FLC-00518-1•Na] | – | 3490 nM | – | – | 3220 nM | – | – | –
5 | CC[C@@H](C(=O)[C@@H](C)[C@@H](O)[C@H](C)[C@@H]1O[C@@H]([C@@H](CC)C(=O)O)CC[C@@H]1C)[C@H]1O[C@]2(C=C[C@@H](NC(=O)C(C)(C)C)[C@]3(CC[C@@](C)([C@H]4CC[C@](O)(CC)[C@H](C)O4)O3)O2)[C@H](C)C[C@@H]1C [FLC-00550-1•Na] | 26.6 | 16.9 nM | 448 nM | 42.1 | 10.6 nM | – | – | –
6 | CC[C@@H](C(=O)[C@@H](C)[C@@H](O)[C@H](C)[C@@H]1O[C@@H]([C@@H](CC)C(=O)O)CC[C@@H]1C)[C@H]1O[C@]2(C=C[C@@H](NC(=O)c3ccncc3)[C@]3(CC[C@@](C)([C@H]4CC[C@](O)(CC)[C@H](C)O4)O3)O2)[C@H](C)C[C@@H]1C [FLC-00487-1•Na] | 27.5 | 133 nM | 3650 nM | 79.6 | 45.9 nM | – | – | –
7 | CC[C@@H](C(=O)[C@@H](C)[C@@H](O)[C@H](C)[C@@H]1O[C@@H]([C@@H](CC)C(=O)O)CC[C@@H]1C)[C@H]1O[C@]2(C=C[C@@H](NC(=O)C(=O)NCCCn3ccnc3)[C@]3(CC[C@@](C)([C@H]4CC[C@](O)(CC)[C@H](C)O4)O3)O2)[C@H](C)C[C@@H]1C [FLC-00392-1•Na] | – | 1960 nM | – | – | 3750 nM | 8330 nM | – | –
8 | CC[C@@H](C(=O)[C@@H](C)[C@@H](O)[C@H](C)[C@@H]1O[C@@H]([C@@H](CC)C(=O)O)CC[C@@H]1C)[C@H]1O[C@]2(C=C[C@@H](NC(=O)C(=O)NCc3ccccc3Cl)[C@]3(CC[C@@](C)([C@H]4CC[C@](O)(CC)[C@H](C)O4)O3)O2)[C@H](C)C[C@@H]1C [FLC-00477-1•Na] | 46.1 | 3.11 nM | 143 nM | 40.4 | 3.54 nM | – | – | –
9 | CC[C@@H](C(=O)[C@@H](C)[C@@H](O)[C@H](C)[C@@H]1O[C@@H]([C@@H](CC)C(=O)O)CC[C@@H]1C)[C@H]1O[C@]2(C=C[C@@H](NC(=O)OCCCN(C)C)[C@]3(CC[C@@](C)([C@H]4CC[C@](O)(CC)[C@H](C)O4)O3)O2)[C@H](C)C[C@@H]1C [FLC-00498-1•Na] | 3.2 | 1560 nM | 5010 nM | 6.6 | 758 nM | – | – | –
10 | CC[C@@H](C(=O)[C@@H](C)[C@@H](O)[C@H](C)[C@@H]1O[C@@H]([C@@H](CC)C(=O)O)CC[C@@H]1C)[C@H]1O[C@]2(C=C[C@@H](NC(=O)C(=O)NCc3cccnc3)[C@]3(CC[C@@](C)([C@H]4CC[C@](O)(CC)[C@H](C)O4)O3)O2)[C@H](C)C[C@@H]1C [FLC-00479-1•Na] | 12.6 | 343 nM | 4300 nM | 15.8 | 272 nM | – | – | –
11 | CC[C@@H](C(=O)[C@@H](C)[C@@H](O)[C@H](C)[C@@H]1O[C@@H]([C@@H](CC)C(=O)O)CC[C@@H]1C)[C@H]1O[C@]2(C=C[C@@H](NC(=O)N3CCOCC3)[C@]3(CC[C@@](C)([C@H]4CC[C@](O)(CC)[C@H](C)O4)O3)O2)[C@H](C)C[C@@H]1C [FLC-00540-1•Na] | 16.5 | 53.9 nM | 891 nM | 24.1 | 37 nM | – | – | –
12 | CC[C@@H](C(=O)[C@@H](C)[C@@H](O)[C@H](C)[C@@H]1O[C@@H]([C@@H](CC)C(=O)O)CC[C@@H]1C)[C@H]1O[C@]2(C=C[C@@H](NC(=O)C(=O)NCCN3CCOCC3)[C@]3(CC[C@@](C)([C@H]4CC[C@](O)(CC)[C@H](C)O4)O3)O2)[C@H](C)C[C@@H]1C [FLC-00465-1•Na] | – | 3170 nM | – | – | 3070 nM | – | – | –
13 | CC[C@@H](C(=O)[C@@H](C)[C@@H](O)[C@H](C)[C@@H]1O[C@@H]([C@@H](CC)C(=O)O)CC[C@@H]1C)[C@H]1O[C@]2(C=C[C@@H](NC(=O)c3cccc(C(F)(F)F)c3)[C@]3(CC[C@@](C)([C@H]4CC[C@](O)(CC)[C@H](C)O4)O3)O2)[C@H](C)C[C@@H]1C [FLC-00579-1•Na] | 8.5 | 188 nM | 1590 nM | 22.3 | 71.4 nM | – | – | –
14 | CC[C@@H](C(=O)[C@@H](C)[C@@H](O)[C@H](C)[C@@H]1O[C@@H]([C@@H](CC)C(=O)O)CC[C@@H]1C)[C@H]1O[C@]2(C=C[C@@H](NC(=O)C(Cl)Cl)[C@]3(CC[C@@](C)([C@H]4CC[C@](O)(CC)[C@H](C)O4)O3)O2)[C@H](C)C[C@@H]1C [FLC-00493-1•Na] | 10.6 | 5.43 nM | 57.7 nM | 26.9 | 2.14 nM | – | – | –
15 | CC[C@@H](C(=O)[C@@H](C)[C@@H](O)[C@H](C)[C@@H]1O[C@@H]([C@@H](CC)C(=O)O)CC[C@@H]1C)[C@H]1O[C@]2(C=C[C@@H](NC(=O)c3ccccc3C(F)(F)F)[C@]3(CC[C@@](C)([C@H]4CC[C@](O)(CC)[C@H](C)O4)O3)O2)[C@H](C)C[C@@H]1C [FLC-00578-1•Na] | 59.8 | 5.99 nM | 358 nM | 184.9 | 1.94 nM | – | – | –
16 | CC[C@@H](C(=O)[C@@H](C)[C@@H](O)[C@H](C)[C@@H]1O[C@@H]([C@@H](CC)C(=O)O)CC[C@@H]1C)[C@H]1O[C@]2(C=C[C@@H](NC(=O)OCCN(C)C)[C@]3(CC[C@@](C)([C@H]4CC[C@](O)(CC)[C@H](C)O4)O3)O2)[C@H](C)C[C@@H]1C [FLC-00497-1•Na] | 8.2 | 278 nM | 2280 nM | 8.2 | 278 nM | – | – | –
17 | CCCCCCCCCCCCCCCCOC(=O)N[C@@H]1C=C[C@]2(O[C@H]([C@@H](CC)C(=O)[C@@H](C)[C@@H](O)[C@H](C)[C@@H]3O[C@@H]([C@@H](CC)C(=O)O)CC[C@@H]3C)[C@@H](C)C[C@H]2C)O[C@@]12CC[C@@](C)([C@H]1CC[C@](O)(CC)[C@H](C)O1)O2 [FLC-00410-1•Na] | – | 3740 nM | – | – | 7700 nM | – | – | –
18 | CC[C@@H](C(=O)[C@@H](C)[C@@H](O)[C@H](C)[C@@H]1O[C@@H]([C@@H](CC)C(=O)O)CC[C@@H]1C)[C@H]1O[C@]2(C=C[C@@H](NC(=O)N(C)CCCN(C)C)[C@]3(CC[C@@](C)([C@H]4CC[C@](O)(CC)[C@H](C)O4)O3)O2)[C@H](C)C[C@@H]1C [FLC-00563-1•Na] | – | 3250 nM | – | – | 3120 nM | – | – | –
19 | CC[C@@H](C(=O)[C@@H](C)[C@@H](O)[C@H](C)[C@@H]1O[C@@H]([C@@H](CC)C(=O)O)CC[C@@H]1C)[C@H]1O[C@]2(C=C[C@@H](NC(=O)C(=O)NCCN(C)C)[C@]3(CC[C@@](C)([C@H]4CC[C@](O)(CC)[C@H](C)O4)O3)O2)[C@H](C)C[C@@H]1C [FLC-00471-1•Na] | – | 4730 nM | – | – | 4290 nM | – | – | –
20 | CC[C@@H](C(=O)[C@@H](C)[C@@H](O)[C@H](C)[C@@H]1O[C@@H]([C@@H](CC)C(=O)O)CC[C@@H]1C)[C@H]1O[C@]2(C=C[C@@H](NC(=O)c3cc(OC)c(OC)c(OC)c3)[C@]3(CC[C@@](C)([C@H]4CC[C@](O)(CC)[C@H](C)O4)O3)O2)[C@H](C)C[C@@H]1C [FLC-00573-1•Na] | – | 158 nM | 1880 nM | – | – | – | – | –
21 | CC[C@@H](C(=O)[C@@H](C)[C@@H](O)[C@H](C)[C@@H]1O[C@@H]([C@@H](CC)C(=O)O)CC[C@@H]1C)[C@H]1O[C@]2(C=C[C@@H](NC(=O)C(=O)NCCO)[C@]3(CC[C@@](C)([C@H]4CC[C@](O)(CC)[C@H](C)O4)O3)O2)[C@H](C)C[C@@H]1C [FLC-00438-1•Na] | – | 2500 nM | – | – | 2900 nM | 7280 nM | – | 6460 nM
22 | CC[C@@H](C(=O)[C@@H](C)[C@@H](O)[C@H](C)[C@@H]1O[C@@H]([C@@H](CC)C(=O)O)CC[C@@H]1C)[C@H]1O[C@]2(C=C[C@@H](NC(=O)NCCCN(C)C)[C@]3(CC[C@@](C)([C@H]4CC[C@](O)(CC)[C@H](C)O4)O3)O2)[C@H](C)C[C@@H]1C [FLC-00562-1•Na] | – | 3070 nM | – | – | 3010 nM | – | – | –
